# Test results as given in publication PMC9276531, “Hyaluronic acid–GPRC5C signalling promotes dormancy in haematopoietic stem cells” (Nature Cell Biology, 2022).
# Legend:
# Assay type in all cases: cell-based
# GPRC5C [1] = target: T1, GPRC5C (Homo sapiens, UniProt Q9NQ84); test: competition with HA-fluorescein on transfected HEK293T cells, flow cytometry; conditions: 100 uM NAG, 8 ug HA-fluorescein, 60 min, room temperature
# T1 construct: GPRC5C-Tango plasmid, N-terminal Flag, PRESTO-Tango reporter fusion; transfected in HTLA or HEK293T cells
# GPRC5C [2] = target: T1, GPRC5C; test: PRESTO-Tango beta-arrestin recruitment, luciferase; conditions: HTLA cells, 24 h, HEPES/HBSS pH 7.4
# GPRC5C [3] = target: T2, GPRC5C (Homo sapiens, UniProt Q9NQ84, N41L, form not given); test: PRESTO-Tango beta-arrestin recruitment, luciferase; conditions: HTLA cells, putative N-glycosylation site mutant
# T2 construct: GPRC5C-Tango plasmid, N-terminal Flag, PRESTO-Tango reporter fusion; transfected in HTLA or HEK293T cells
# T2 sequence (Q9NQ84 12-429 N41L): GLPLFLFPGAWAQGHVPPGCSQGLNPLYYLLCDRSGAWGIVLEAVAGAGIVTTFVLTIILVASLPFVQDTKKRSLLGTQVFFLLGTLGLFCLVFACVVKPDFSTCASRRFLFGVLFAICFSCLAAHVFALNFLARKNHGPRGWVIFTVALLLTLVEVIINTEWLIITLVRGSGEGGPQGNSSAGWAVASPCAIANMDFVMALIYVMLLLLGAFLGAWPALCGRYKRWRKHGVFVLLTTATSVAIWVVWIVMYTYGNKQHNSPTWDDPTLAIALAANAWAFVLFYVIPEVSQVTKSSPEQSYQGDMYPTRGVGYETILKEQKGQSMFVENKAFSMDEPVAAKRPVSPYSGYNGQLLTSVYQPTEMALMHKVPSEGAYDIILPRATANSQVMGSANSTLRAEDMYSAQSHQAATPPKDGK
# T1 sequence (Q9NQ84 24-441): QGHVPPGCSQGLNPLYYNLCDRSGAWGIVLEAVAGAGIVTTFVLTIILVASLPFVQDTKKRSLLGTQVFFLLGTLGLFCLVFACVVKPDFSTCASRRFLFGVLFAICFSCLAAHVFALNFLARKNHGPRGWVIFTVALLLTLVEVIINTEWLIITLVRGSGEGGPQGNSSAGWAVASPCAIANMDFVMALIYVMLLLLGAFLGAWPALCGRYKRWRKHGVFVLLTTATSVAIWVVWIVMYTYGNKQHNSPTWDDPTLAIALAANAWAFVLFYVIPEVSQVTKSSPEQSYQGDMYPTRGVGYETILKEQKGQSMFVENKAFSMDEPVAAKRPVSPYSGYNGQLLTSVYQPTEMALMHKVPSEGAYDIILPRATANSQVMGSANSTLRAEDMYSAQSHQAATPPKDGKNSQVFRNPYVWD
smiles,measurement,setting,value
"CC(=O)N[C@H]1C(O)O[C@H](CO)[C@@H](O)[C@@H]1O (stereo partly drawn) [NAG, N-acetyl-D-glucosamine]","competition with HA-fluorescein on transfected HEK293T cells, flow cytometry",GPRC5C [1],HA interaction with GPRC5C was reduced when NAG was present
same,concentration-response (agonist),GPRC5C [2],HA and NAG treatments led to a dose-dependent response
same,concentration-response (agonist),GPRC5C [3],dampened the luciferase response that was previously elicited by treatment with HA and NAG
